In ChEMBL document CHEMBL1157033, “Developing a complete pharmacology for AMPA receptors: a perspective on subtype-selective ligands” (Bioorg Med Chem, 2010):

Columns and labels:
[1] = target: T1, Glutamate receptor AMPA 2/4 (Rattus norvegicus) (UniProt P19491+P19493); assay: Activity at rat recombinant GluA2A4 receptor flop isoform expressed in HEK293 cells assessed as potentiation of 3000 uM glutamate-induced current at 100 uM relative to control; format: cell-based
[2] = target: T2, Glutamate receptor AMPA 1/2 (Rattus norvegicus) (UniProt P19491+P19490); assay: Activity at rat recombinant GluA1A2 receptor flop isoform expressed in HEK293 cells assessed as potentiation of 3000 uM glutamate-induced current at 100 uM relative to control; format: cell-based
[3] = target: T3, Glutamate receptor AMPA 2/3 (Homo sapiens) (UniProt P42263+P42262); assay: Activity at recombinant GluA2A3 receptor flop isoform expressed in Xenopus oocytes assessed as potentiation of 10 uM AMPA-induced current at 100 uM relative to control; format: cell-based; settings: Oocyte
[4] = target: T4, Glutamate receptor ionotropic, AMPA 2/3 (Rattus norvegicus) (UniProt P19491+P19492); assay: Activity at rat recombinant GluA2A3 receptor flop isoform expressed in HEK293 cells assessed as potentiation of 3000 uM glutamate-induced current at 100 uM relative to control; format: cell-based
[5] = target: T5, Glutamate receptor AMPA 1/2 (Homo sapiens) (UniProt P42262+P42261); assay: Activity at recombinant GluA1 receptor flip/GluA2 receptor flop isoform expressed in Xenopus oocytes assessed as potentiation of 10 uM AMPA-induced current at 100 uM relative to control; format: cell-based; settings: Oocyte
[6] = target: Glutamate receptor 1 (Rattus norvegicus) (UniProt P19490); assay: Activity at rat recombinant GluA1 receptor flip isoform expressed in HEK293 cells assessed as potentiation of 3000 uM glutamate-induced current at 100 uM relative to control; format: cell-based
Chain of Glutamate receptor 1 (Rattus norvegicus) (P19490 whole entry, canonical isoform): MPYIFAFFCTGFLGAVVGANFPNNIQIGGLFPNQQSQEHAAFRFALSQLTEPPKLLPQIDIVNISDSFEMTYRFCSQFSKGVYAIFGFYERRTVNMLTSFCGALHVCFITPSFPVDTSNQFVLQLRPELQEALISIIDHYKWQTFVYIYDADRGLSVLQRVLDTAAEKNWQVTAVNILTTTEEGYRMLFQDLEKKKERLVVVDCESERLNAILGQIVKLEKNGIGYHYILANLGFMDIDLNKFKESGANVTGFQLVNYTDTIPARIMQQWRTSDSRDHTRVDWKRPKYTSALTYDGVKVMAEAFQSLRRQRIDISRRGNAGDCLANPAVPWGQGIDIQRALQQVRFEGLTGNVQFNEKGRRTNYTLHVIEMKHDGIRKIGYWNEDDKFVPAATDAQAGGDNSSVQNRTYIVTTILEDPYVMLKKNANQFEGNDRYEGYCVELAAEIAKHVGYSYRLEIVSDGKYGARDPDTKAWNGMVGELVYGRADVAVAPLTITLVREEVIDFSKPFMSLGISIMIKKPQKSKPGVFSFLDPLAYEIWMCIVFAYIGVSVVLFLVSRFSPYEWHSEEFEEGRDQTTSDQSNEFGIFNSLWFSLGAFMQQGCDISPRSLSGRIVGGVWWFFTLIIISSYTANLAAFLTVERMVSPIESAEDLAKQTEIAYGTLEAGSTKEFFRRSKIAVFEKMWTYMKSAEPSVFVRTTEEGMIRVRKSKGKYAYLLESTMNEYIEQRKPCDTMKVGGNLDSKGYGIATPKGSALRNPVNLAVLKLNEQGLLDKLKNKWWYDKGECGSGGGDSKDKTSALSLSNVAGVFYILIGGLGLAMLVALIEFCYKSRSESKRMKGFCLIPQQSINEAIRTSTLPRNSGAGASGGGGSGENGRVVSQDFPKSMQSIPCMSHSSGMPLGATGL

[7] = target: Glutamate receptor 1 (Rattus norvegicus) (UniProt P19490); assay: Activity at rat recombinant GluA1 receptor flop isoform expressed in HEK293 cells assessed as potentiation of 3000 uM glutamate-induced current at 100 uM relative to control; format: cell-based
[8] = target: Glutamate receptor 3 (Rattus norvegicus) (UniProt P19492); assay: Activity at rat recombinant GluA3 receptor flip isoform expressed in HEK293 cells assessed as potentiation of 3000 uM glutamate-induced current at 100 uM relative to control; format: cell-based
Chain of Glutamate receptor 3 (Rattus norvegicus) (P19492 whole entry, canonical isoform): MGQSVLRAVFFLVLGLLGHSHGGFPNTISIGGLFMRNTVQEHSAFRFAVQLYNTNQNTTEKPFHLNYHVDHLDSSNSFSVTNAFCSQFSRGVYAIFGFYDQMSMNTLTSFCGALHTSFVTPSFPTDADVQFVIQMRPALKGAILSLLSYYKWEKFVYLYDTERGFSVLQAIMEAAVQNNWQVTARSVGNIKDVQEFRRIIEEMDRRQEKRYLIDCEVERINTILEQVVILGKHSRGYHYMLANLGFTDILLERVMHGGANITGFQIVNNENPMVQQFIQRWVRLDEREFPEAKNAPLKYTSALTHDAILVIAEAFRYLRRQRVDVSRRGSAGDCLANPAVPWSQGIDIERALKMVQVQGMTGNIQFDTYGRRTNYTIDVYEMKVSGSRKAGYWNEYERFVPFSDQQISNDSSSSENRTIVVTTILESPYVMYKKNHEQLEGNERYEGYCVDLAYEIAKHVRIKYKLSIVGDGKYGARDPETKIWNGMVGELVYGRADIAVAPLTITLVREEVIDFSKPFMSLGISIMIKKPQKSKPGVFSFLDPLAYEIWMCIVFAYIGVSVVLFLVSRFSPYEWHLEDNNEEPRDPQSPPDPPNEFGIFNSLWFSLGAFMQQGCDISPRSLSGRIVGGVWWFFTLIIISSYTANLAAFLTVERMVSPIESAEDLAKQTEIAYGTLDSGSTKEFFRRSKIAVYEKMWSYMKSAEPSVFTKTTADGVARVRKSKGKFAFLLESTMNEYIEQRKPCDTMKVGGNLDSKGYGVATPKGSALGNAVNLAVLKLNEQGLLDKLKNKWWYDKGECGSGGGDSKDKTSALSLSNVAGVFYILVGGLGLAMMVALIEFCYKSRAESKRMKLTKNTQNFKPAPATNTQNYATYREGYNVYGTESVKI

[9] = target: Glutamate receptor 4 (Rattus norvegicus) (UniProt P19493); assay: Activity at rat recombinant GluA4 receptor flip isoform expressed in HEK293 cells assessed as potentiation of 3000 uM glutamate-induced current at 100 uM relative to control; format: cell-based
[10] = target: T2, Glutamate receptor AMPA 1/2 (Rattus norvegicus); assay: Activity at rat recombinant GluA1A2 receptor flip isoform expressed in HEK293 cells assessed as potentiation of 3000 uM glutamate-induced current at 100 uM relative to control; format: cell-based
Glutamate receptor 1 [11] = target: T6, Glutamate receptor 1 (Homo sapiens, UniProt P42261); assay: Activity at recombinant GluA1 receptor flop isoform expressed in Xenopus oocytes assessed as potentiation of 10 uM AMPA-induced current at 100 uM relative to control; format: cell-based; settings: Oocyte
T6 sequence (P42261 whole entry, canonical isoform): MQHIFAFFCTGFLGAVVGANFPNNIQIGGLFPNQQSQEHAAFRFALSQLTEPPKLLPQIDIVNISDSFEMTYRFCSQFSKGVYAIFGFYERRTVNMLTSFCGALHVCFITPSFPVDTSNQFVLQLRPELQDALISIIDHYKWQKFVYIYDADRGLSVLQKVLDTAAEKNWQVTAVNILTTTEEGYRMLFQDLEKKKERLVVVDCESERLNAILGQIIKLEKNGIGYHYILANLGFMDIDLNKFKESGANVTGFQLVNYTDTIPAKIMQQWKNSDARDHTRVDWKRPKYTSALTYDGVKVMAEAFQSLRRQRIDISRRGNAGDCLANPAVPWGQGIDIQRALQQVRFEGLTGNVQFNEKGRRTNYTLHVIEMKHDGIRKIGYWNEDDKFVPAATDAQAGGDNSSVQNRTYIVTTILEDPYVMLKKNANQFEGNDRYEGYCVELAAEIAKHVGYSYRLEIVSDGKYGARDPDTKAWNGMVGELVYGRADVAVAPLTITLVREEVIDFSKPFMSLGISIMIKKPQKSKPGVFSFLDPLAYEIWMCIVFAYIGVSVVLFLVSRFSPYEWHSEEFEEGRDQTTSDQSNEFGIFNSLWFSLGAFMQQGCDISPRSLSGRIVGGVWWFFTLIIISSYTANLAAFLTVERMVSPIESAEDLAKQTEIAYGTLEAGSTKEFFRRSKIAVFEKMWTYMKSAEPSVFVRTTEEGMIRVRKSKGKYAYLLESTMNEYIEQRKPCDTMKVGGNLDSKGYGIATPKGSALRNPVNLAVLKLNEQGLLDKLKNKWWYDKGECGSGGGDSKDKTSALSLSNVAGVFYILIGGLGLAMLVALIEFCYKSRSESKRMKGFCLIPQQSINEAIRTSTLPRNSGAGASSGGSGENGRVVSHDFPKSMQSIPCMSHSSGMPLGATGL

Glutamate receptor 1 [12] = target: T6, Glutamate receptor 1; assay: Activity at recombinant GluA1 receptor flip isoform expressed in Xenopus oocytes assessed as potentiation of 10 uM AMPA-induced current at 100 uM relative to control; format: cell-based; settings: Oocyte
[13] = target: Glutamate receptor 3 (Rattus norvegicus) (UniProt P19492); assay: Activity at rat recombinant GluA3 receptor flop isoform expressed in HEK293 cells assessed as potentiation of 3000 uM glutamate-induced current at 100 uM relative to control; format: cell-based
[14] = target: T5, Glutamate receptor AMPA 1/2 (Homo sapiens); assay: Activity at recombinant GluA1 receptor flop/GluA2 receptor flip isoform expressed in Xenopus oocytes assessed as potentiation of 10 uM AMPA-induced current at 100 uM relative to control; format: cell-based; settings: Oocyte
Glutamate receptor 3 [15] = target: T7, Glutamate receptor 3 (Homo sapiens, UniProt P42263); assay: Activity at recombinant GluA3 receptor flip isoform expressed in Xenopus oocytes assessed as potentiation of 10 uM AMPA-induced current at 100 uM relative to control; format: cell-based; settings: Oocyte
T7 sequence (P42263 whole entry, canonical isoform): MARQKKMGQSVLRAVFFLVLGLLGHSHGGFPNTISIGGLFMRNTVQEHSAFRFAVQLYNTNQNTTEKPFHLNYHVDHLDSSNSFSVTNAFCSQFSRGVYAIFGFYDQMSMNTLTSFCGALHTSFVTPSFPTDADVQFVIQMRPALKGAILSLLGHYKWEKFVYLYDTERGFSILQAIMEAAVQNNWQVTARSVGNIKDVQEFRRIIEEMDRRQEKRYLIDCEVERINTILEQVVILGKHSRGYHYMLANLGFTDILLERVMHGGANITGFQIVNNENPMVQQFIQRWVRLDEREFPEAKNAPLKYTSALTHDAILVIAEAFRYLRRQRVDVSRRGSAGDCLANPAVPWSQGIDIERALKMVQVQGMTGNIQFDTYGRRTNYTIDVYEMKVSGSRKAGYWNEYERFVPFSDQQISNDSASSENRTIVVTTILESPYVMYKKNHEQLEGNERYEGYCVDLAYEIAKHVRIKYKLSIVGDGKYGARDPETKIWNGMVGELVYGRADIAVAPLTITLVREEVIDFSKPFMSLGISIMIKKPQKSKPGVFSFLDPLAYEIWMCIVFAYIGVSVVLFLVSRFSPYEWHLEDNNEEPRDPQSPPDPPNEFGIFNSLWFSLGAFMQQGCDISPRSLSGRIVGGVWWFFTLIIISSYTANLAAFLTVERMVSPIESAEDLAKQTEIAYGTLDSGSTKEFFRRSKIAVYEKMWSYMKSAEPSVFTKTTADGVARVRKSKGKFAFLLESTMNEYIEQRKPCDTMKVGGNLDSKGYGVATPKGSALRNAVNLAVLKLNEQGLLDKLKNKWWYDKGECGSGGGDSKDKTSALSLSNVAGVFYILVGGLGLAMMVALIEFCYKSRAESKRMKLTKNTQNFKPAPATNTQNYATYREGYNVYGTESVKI

[16] = target: T3, Glutamate receptor AMPA 2/3 (Homo sapiens); assay: Activity at recombinant GluA2 receptor flop/GluA3 receptor flip isoform expressed in Xenopus oocytes assessed as potentiation of 10 uM AMPA-induced current at 100 uM relative to control; format: cell-based; settings: Oocyte
[17] = target: Glutamate receptor 4 (Rattus norvegicus) (UniProt P19493); assay: Activity at rat recombinant GluA4 receptor flop isoform expressed in HEK293 cells assessed as potentiation of 3000 uM glutamate-induced current at 100 uM relative to control; format: cell-based
[18] = target: T5, Glutamate receptor AMPA 1/2 (Homo sapiens); assay: Activity at recombinant GluA1A2 receptor flop isoform expressed in Xenopus oocytes assessed as potentiation of 10 uM AMPA-induced current at 100 uM relative to control; format: cell-based; settings: Oocyte
[19] = target: T1, Glutamate receptor AMPA 2/4 (Rattus norvegicus); assay: Activity at rat recombinant GluA2A4 receptor flip isoform expressed in HEK293 cells assessed as potentiation of 3000 uM glutamate-induced current at 100 uM relative to control; format: cell-based
[20] = target: T3, Glutamate receptor AMPA 2/3 (Homo sapiens); assay: Activity at recombinant GluA2 receptor flip/GluA3 receptor flop isoform expressed in Xenopus oocytes assessed as potentiation of 10 uM AMPA-induced current at 100 uM relative to control; format: cell-based; settings: Oocyte
[21] = target: T4, Glutamate receptor ionotropic, AMPA 2/3 (Rattus norvegicus); assay: Activity at rat recombinant GluA2A3 receptor flip isoform expressed in HEK293 cells assessed as potentiation of 3000 uM glutamate-induced current at 100 uM relative to control; format: cell-based
Glutamate receptor 3 [22] = target: T7, Glutamate receptor 3; assay: Activity at recombinant GluA3 receptor flop isoform expressed in Xenopus oocytes assessed as potentiation of 10 uM AMPA-induced current at 100 uM relative to control; format: cell-based; settings: Oocyte
Glutamate receptor 3 [23] = target: T8, Glutamate receptor 3 (Rattus norvegicus, UniProt P19492); assay: Agonist activity at rat recombinant GluA3 receptor expressed in Xenopus oocytes; format: functional, cell-based, Oocyte
T8 sequence (P19492 whole entry): as the sequence (P19492 whole entry, canonical isoform) above

Glutamate receptor 1 [24] = target: T9, Glutamate receptor 1 (Rattus norvegicus, UniProt P19490); assay: Agonist activity at rat recombinant GluA1 receptor expressed in Xenopus oocytes; format: functional, cell-based, Oocyte
T9 sequence (P19490 whole entry, canonical isoform): as the sequence (P19490 whole entry, canonical isoform) above

Glutamate receptor 1 [25] = target: T9, Glutamate receptor 1; assay: Agonist activity at rat recombinant GluA1 receptor flop isoform expressed in Xenopus oocytes; format: functional, cell-based, Oocyte
Glutamate receptor 3 [26] = target: T8, Glutamate receptor 3; assay: Agonist activity at rat recombinant GluA3 receptor flop isoform expressed in Xenopus oocytes; format: functional, cell-based, Oocyte
Glutamate receptor 2 [27] = target: T10, Glutamate receptor 2 (Homo sapiens, UniProt P42262); assay: Agonist activity at GluA2 receptor; format: functional
T10 sequence (P42262 whole entry): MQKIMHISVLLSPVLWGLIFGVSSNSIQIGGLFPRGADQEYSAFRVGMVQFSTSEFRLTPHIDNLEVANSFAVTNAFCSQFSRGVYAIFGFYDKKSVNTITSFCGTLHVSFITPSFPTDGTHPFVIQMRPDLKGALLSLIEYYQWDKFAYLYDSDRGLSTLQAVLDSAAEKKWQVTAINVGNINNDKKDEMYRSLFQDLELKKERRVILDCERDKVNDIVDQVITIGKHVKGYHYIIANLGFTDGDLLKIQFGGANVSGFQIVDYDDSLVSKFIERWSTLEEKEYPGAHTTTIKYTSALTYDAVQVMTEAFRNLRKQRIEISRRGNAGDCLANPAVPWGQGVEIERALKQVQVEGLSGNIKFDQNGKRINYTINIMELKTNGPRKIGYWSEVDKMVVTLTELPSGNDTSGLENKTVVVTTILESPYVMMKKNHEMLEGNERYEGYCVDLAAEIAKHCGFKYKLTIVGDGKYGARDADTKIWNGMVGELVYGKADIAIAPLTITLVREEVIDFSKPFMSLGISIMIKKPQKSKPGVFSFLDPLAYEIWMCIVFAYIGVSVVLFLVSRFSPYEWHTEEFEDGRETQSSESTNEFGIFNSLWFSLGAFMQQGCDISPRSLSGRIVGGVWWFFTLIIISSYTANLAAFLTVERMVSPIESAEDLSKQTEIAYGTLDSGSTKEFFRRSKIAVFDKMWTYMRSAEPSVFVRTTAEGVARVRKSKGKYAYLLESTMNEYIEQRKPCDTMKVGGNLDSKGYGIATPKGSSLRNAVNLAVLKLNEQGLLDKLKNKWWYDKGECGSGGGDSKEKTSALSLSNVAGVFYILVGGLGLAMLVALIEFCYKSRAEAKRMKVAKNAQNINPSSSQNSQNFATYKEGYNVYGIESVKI

Glutamate receptor 3 [28] = target: T7, Glutamate receptor 3; assay: Agonist activity at GluA3 receptor; format: functional
Glutamate receptor 1 [29] = target: T6, Glutamate receptor 1; assay: Agonist activity at recombinant GluA1 receptor flip isoform expressed in Xenopus oocytes; format: functional, cell-based, Oocyte
[30] = Agonist activity at recombinant GluA4 receptor flip isoform expressed in Xenopus oocytes; format: functional, cell-based; settings: Oocyte
Glutamate receptor 2 [31] = target: T10, Glutamate receptor 2; assay: Agonist activity at recombinant GluA2 receptor flop isoform expressed in Xenopus oocytes; format: functional, cell-based, Oocyte
Glutamate receptor 3 [32] = target: T7, Glutamate receptor 3; assay: Agonist activity at recombinant GluA3 receptor flip isoform expressed in Xenopus oocytes; format: functional, cell-based, Oocyte
Glutamate receptor 1 [33] = target: T6, Glutamate receptor 1; assay: Agonist activity at GluA1 receptor; format: functional
Glutamate receptor 1 [34] = target: T6, Glutamate receptor 1; assay: Agonist activity at recombinant GluA1 receptor expressed in Xenopus oocytes; format: functional, cell-based, Oocyte
[35] = target: T11, Glutamate receptor AMPA 2/3 (Homo sapiens, UniProt P42262+P42263); assay: Agonist activity at recombinant GluA2A3 receptor flop isoform expressed in Xenopus oocytes; format: functional, cell-based, Oocyte
T11 sequence (P42263 whole entry, canonical isoform): as the sequence (P42263 whole entry, canonical isoform) above
T11 sequence (P42262 whole entry, canonical isoform): as the sequence (P42262 whole entry) above

Glutamate receptor 3 [36] = target: T7, Glutamate receptor 3; assay: Agonist activity at recombinant GluA3 receptor flop isoform expressed in Xenopus oocytes; format: functional, cell-based, Oocyte
[37] = target: T12, Glutamate receptor AMPA 1/2 (Homo sapiens, UniProt P42261+P42262); assay: Agonist activity at recombinant GluA1A2 receptor flop isoform expressed in Xenopus oocytes; format: functional, cell-based, Oocyte
T12 sequence (P42262 whole entry, canonical isoform): as the sequence (P42262 whole entry) above
T12 sequence (P42261 whole entry, canonical isoform): as the sequence (P42261 whole entry, canonical isoform) above

Oocyte = assay: Selectivity ratio of EC50 for recombinant GluA3 receptor to EC50 for recombinant GluA1 receptor expressed in Xenopus oocytes; format: cell-based
Glutamate receptor 1 [38] = target: T6, Glutamate receptor 1
[39] = Agonist activity at recombinant GluA2A4 receptor flop isoform expressed in Xenopus oocytes; format: functional, cell-based; settings: Oocyte
Glutamate receptor 3 [40] = target: T7, Glutamate receptor 3; assay: Agonist activity at recombinant GluA3 receptor expressed in Xenopus oocytes; format: functional, cell-based, Oocyte
[41] = Agonist activity at recombinant GluA4 receptor flop isoform expressed in Xenopus oocytes; format: functional, cell-based; settings: Oocyte
[42] = Selectivity ratio of EC50 for GluA2A3 receptor to EC50 for GluA1A2 receptor
[43] = target: T11, Glutamate receptor AMPA 2/3; assay: Agonist activity at GluA2A3 receptor; format: functional
[44] = target: T12, Glutamate receptor AMPA 1/2; assay: Agonist activity at GluA1A2 receptor; format: functional

NC(=O)COc1c(F)cc(SCCNS(=O)(=O)c2ccccc2)cc1F
fold change (FC) [1]: 74 | fold change (FC) [2]: 124 | fold change (FC) [3]: 21.1 | fold change (FC) [4]: 138 | fold change (FC) [5]: 20.1 | fold change (FC) [6]: 1.9 | fold change (FC) [7]: 2.9 | fold change (FC) [8]: 2.51 | fold change (FC) [9]: 11 | fold change (FC) [10]: 20 | fold change (FC) (Glutamate receptor 1 [11]): 2.9 | fold change (FC) (Glutamate receptor 1 [12]): 1.9 | fold change (FC) [13]: 11.1 | fold change (FC) [14]: 9.49 | fold change (FC) (Glutamate receptor 3 [15]): 2.51 | fold change (FC) [16]: 4.78 | fold change (FC) [17]: 75 | fold change (FC) [18]: 7.44 | fold change (FC) [19]: 10 | fold change (FC) [20]: 8.85 | fold change (FC) [21]: 28 | fold change (FC) (Glutamate receptor 3 [22]): 11.1

Cc1onc(C(=O)O)c1CC(N)C(=O)O (racemic)
EC50 (Glutamate receptor 3 [23]): 0.1 µM | EC50 (Glutamate receptor 1 [24]): 1.1 µM | EC50 (Glutamate receptor 1 [25]): 1.1 µM | EC50 (Glutamate receptor 3 [26]): 0.1 µM

NC(Cc1onc(O)c1Cl)C(=O)O (racemic)
EC50 (Glutamate receptor 2 [27]): 1.7 µM | EC50 (Glutamate receptor 3 [28]): 2700 µM | EC50 (Glutamate receptor 1 [29]): 4.7 µM | EC50 [30]: 1300 µM | EC50 (Glutamate receptor 2 [31]): 1.7 µM | EC50 (Glutamate receptor 3 [32]): 2700 µM | EC50 (Glutamate receptor 1 [33]): 4.1 µM

NC(Cc1onc(O)c1Br)C(=O)O (racemic)
EC50 (Glutamate receptor 1 [34]): 14 µM | EC50 [35]: 80 µM | EC50 (Glutamate receptor 3 [36]): 202 µM | EC50 [37]: 16 µM | Ratio EC50 (Oocyte): 14 | EC50 (Glutamate receptor 1 [38]): 14 µM | EC50 [39]: 26 µM | EC50 (Glutamate receptor 3 [40]): 202 µM | EC50 [41]: 39 µM | Ratio EC50 [42]: 5 | EC50 [43]: 80 µM | EC50 [44]: 16 µM
